{"source": "paper doi:10.1101/2025.11.18.689095", "about": "(bioRxiv, 2025)", "key": {"Tom70:Orf9bHelix complex [1]": {"target": "T1, Tom70:Orf9bHelix complex (Homo sapiens, UniProt O94826)", "T1 construct": "human Tom70 (residues 108–608); Avi tag (N, cleaved yes); His6 tag (N, cleaved yes); (GGS)5 linker and TEV cleavage site (N, cleaved yes); host or cells: E. coli BL21 (DE3) for Tom70; synthetic peptide", "T1 sequence (P0DTD2 44-77 partner limits assumed, one chain of several)": "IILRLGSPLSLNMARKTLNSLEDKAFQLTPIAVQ", "assay": "biochemical", "type": "binding, human Tom70; SARS-CoV-2 Orf9b"}, "[2]": {"target": "T2, human Tom70 (residues 108–608) (Homo sapiens, UniProt O94826)", "T2 construct": "human Tom70 (residues 108–608); Avi tag (N, cleaved yes); His6 tag (N, cleaved yes); (GGS)5 linker and TEV cleavage site (N, cleaved yes); made in house; host or cells: E. coli BL21 (DE3)", "T2 sequence (O94826 108-608)": "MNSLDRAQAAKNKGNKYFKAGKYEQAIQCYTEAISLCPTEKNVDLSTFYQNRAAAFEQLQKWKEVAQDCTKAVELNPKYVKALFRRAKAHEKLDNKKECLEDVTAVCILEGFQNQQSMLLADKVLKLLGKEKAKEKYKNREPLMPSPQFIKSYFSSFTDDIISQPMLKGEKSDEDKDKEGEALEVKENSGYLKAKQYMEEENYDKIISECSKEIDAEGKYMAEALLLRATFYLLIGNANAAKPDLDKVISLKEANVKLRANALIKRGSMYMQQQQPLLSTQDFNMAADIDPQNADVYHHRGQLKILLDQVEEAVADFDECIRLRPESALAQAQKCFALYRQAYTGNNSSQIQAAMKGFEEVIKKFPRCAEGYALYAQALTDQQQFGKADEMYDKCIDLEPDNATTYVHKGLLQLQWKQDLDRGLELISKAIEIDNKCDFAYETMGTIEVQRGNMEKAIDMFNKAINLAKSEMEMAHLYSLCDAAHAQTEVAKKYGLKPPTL", "assay": "ITC, Hsp90EEVD peptide binding to free Tom70", "details": "20°C, pH 8, 150 mM NaCl, 2 mM TCEP, 10% glycerol, Hsp90EEVD (400–500 μM) into Tom70 (30 μM), mean ± SD of 3 measurements, read-out: KD of Hsp90EEVD to Tom70 alone", "experimental": "(§1) All ITC experiments were recorded at 20°C using a Microcal-PEAQ-ITC calorimeter (Malvern Panalytical). Experiments involving full-length Hsp90 or the Hsp90EEVD peptide were carried out in buffer containing 20 mM sodium phosphate (pH 8), 150 mM NaCl, 2 mM TCEP, and 10% glycerol. 10% glycerol was required to prevent precipitation of Hsp90 during titration.\n(§2) Unbound Orf9bHelix was removed via multiple rounds of concentration and buffer exchange on a concentrator (Vivaspin 20, Satorius). Orf9b truncation mutant complexes were produced in the same way. Experiments involving the binding of Orf9bHelix titrated into Tom70 were carried out in buffer containing 20 mM sodium phosphate (pH 7), 100 mM NaCl, and 2 mM TCEP. Orf9bHelix (120 μM) was titrated into 15 μM Tom70 or Tom70:Hsp90EEVD complex (15 μM Tom70: 400 μM Hsp90EEVD).\n(§3) All data was fit using a 1:1 binding model to obtain the reported thermodynamic parameters using the software provided by the instrument. Reported parameters are the average and standard deviation of individual runs of the experiment, as outlined in supplementary information (Figs S3 and S9)."}, "Tom70:Orf9bHelix complex [3]": {"target": "T1, Tom70:Orf9bHelix complex", "type": "binding, human Tom70; SARS-CoV-2 Orf9b", "details": "pH 8"}, "Tom70": {"tested_on": "Tom70", "assay": "BLI kinetics, Hsp90 with free Tom70", "type": "binding, human", "experimental": "We therefore indirectly estimated kon values by combining koff values obtained from BLI with KD values determined by ITC, i.e., kon=koffBLI/KDITC .\nBiotinylated Hsp90 proteins were immobilized onto streptavidin biosensor probes, and experiments were conducted in buffer containing 20 mM sodium phosphate (pH 7), 150 mM NaCl, 1% BSA, 0.6 M sucrose, and 1 mM TCEP[68]. […] To combat heterogenous binding, dissociation curves were fit with a two-phase exponential curve. Due to the association rate (kon) being too rapid to quantify, kon values were indirectly estimated by combining koff values obtained from BLI with KD values determined by ITC ( kon=koffBLI/KDITC ). All data are corrected for non-specific binding. Error is given as the standard deviation of at least two measurements."}, "Tom70:Orf9b complex [4]": {"target": "Tom70:Orf9b complex", "set-up": "species or system human Tom70; SARS-CoV-2 Orf9b", "details": "read-out: binding affinity (KD) of full-length Hsp90 to Tom70:Orf9b complex; pH 8"}, "Tom70:Orf9b complex [5]": {"tested_on": "Tom70:Orf9b complex", "type": "binding, human Tom70; SARS-CoV-2 Orf9b"}, "[6]": {"target": "T2, human Tom70 (residues 108–608)", "assay": "ITC, Hsp90 binding to free Tom70", "experimental": "as §1, §2, §3"}}, "note": "Where no end group is shown, it is not given here."}
{"substance": "YDTSRMEEVD [Hsp90EEVD]", "values": [{"measurement": "Kd", "setting": "Tom70:Orf9bHelix complex [1]", "result": "12 ± 1", "unit": "µM"}, {"measurement": "Kd", "setting": "[2]", "result": "12 ± 1", "unit": "µM"}]}
{"substance": "Hsp90: human Hsp90α (residues 1–732), expressed in E. coli", "values": [{"measurement": "thermodynamic signature of binding to Tom70-Orf9bHelix complex", "setting": "Tom70:Orf9bHelix complex [3]", "result": "driven entirely by a favorable enthalpy change"}, {"measurement": "association rate of Hsp90 to free Tom70 (BLI, direct)", "setting": "Tom70; BLI, 25°C, pH 7, 150 mM NaCl, 1% BSA, 0.6 M sucrose, 1 mM TCEP, Hsp90 immobilized", "result": "too rapid to quantify accurately"}, {"measurement": "kon for Hsp90 binding to free Tom70", "setting": "Tom70; indirectly estimated, kon = koff(BLI)/KD(ITC), BLI 25°C pH 7, ITC 20°C pH 8, SD of at least two measurements", "result": "500000 ± 200000", "unit": "M⁻¹ s⁻¹"}, {"measurement": "Kd", "setting": "Tom70:Orf9b complex [4]", "result": "22 ± 1", "unit": "µM"}, {"measurement": "kon for Hsp90 binding to Tom70 in presence of bound full-length Orf9b", "setting": "Tom70:Orf9b complex [5]", "result": "20000 ± 10000", "unit": "M⁻¹ s⁻¹"}, {"measurement": "Kd", "setting": "[6]; 20°C, 20 mM sodium phosphate pH 8, 150 mM NaCl, 2 mM TCEP, 10% glycerol, Tom70 (400 μM) into Hsp90 (20 μM), 1:1 model, mean ± SD of 3 measurements, read-out: binding affinity (KD) of full-length Hsp90 to free Tom70", "result": "3 ± 1", "unit": "µM"}, {"measurement": "thermodynamic signature of binding to free Tom70", "setting": "[6]; 20°C, pH 8, Fig 5C", "result": "a favorable entropy change was the major driving force"}, {"measurement": "affinity of full-length Hsp90 to free Tom70 relative to Hsp90EEVD peptide", "setting": "[6]; higher affinity than the Hsp90EEVD peptide", "result": 4, "unit": "fold"}]}
